Reference: PMC6476176 (Ultrasound in medicine & biology, 2018)
Like-named read-outs stand apart in the source and are kept apart here.

Legend:
[1] = cited from earlier work
[2] = Histological analysis of skin samples; type: in vivo, Yorkshire pigs; conditions: pig
[3] = Plasma T-20 concentration and pharmacokinetics in porcine model; type: in vivo, Yorkshire pigs; conditions: Yorkshire, pig, sc, 90 mg
[4] = T-20 subcutaneous injection twice daily 29 days, n=12

## enfuvirtide
[1]; human, in vivo
  AUC∞: 55.8 (22%) μg·h/mL
  Cmax: 4.59 (32%) μg/mL
  Tmax humans (median): 6.9 h
  Tmax humans (range): 3 to 12 h
  tmax: 6.92 (36%) h
  t½: 3.80 (15%) h
[1]; human, ref Usa, 2012
  typical human plasma Ctrough: 3300 ± 1600 ng/mL
[1]; in vivo
  CI: 1.68 (22%) L/h
[2]; in vivo
  Skin irritation: Major, number of Subjects: 1
  Skin irritation: Minor, number of Subjects: 4
  Skin irritation: None, number of Subjects: 7
  Skin irritation: Similar to Eczema, number of Subjects: 1
[2]; in vivo, sc
  Skin irritation: Major+ Necrosis, number of Subjects: 3
[2]; [4]
  Skin irritation: Major, number of Subjects: 3
  Skin irritation: Minor, number of Subjects: 3
  Skin irritation: None, number of Subjects: 2
  Skin irritation: Similar to Eczema, number of Subjects: 1
[3]
  AUC(0-inf): 43300 ng·h/mL
  Cmax: 6310 ng/mL
  half-life: 3.97 h
  tmax: 2.5 h
